Laboratory results from PMC10180428, “α-Glucosidase Inhibitors from Two Mangrove-Derived Actinomycetes” (Molecules, 2023).
Where two headings read alike, the source gives them in different places.

Legend:
[1] = biological target: T1, α-Glucosidase (AGS) (Saccharomyces cerevisiae, UniProt P53341); assay: biochemical; settings: read-out: AGS inhibitory activity IC50
Description: The AGS inhibitory activity was evaluated following the methods reported in the literature.

[2] = biological target: T1, α-Glucosidase (AGS); assay: Inhibition kinetics analysis (Lineweaver–Burk plots and secondary plots); format: biochemical; settings: for inhibition type against AGS: Lineweaver–Burk plots
Description: Although several 2,5-DKP containing cyclodipeptides have been reported to inhibit the activity of AGS to different extents, little is known on the inhibition kinetics of these inhibitors. Herein, the inhibition kinetic mechanisms of 3, 8, 9, 11, 14, 16, and 17 against AGS were analyzed using the Lineweaver–Burk plots. The inhibition constants Ki and Ki’ of the inhibitors were calculated by secondary plots of “slope versus [I]” and “Y-intercept versus [I]”, respectively. […] This postulation was reinforced by the varied Km/Vmax values which were not in accordance with uncompetitive inhibition. However, the replots of the slope and y-intercept versus the concentration of 14 and 17 were not linearly fitted, which limited the application of Equations (3) and (4). […] It was interesting that seven cyclodipeptide congeners tended to inhibit the activity of AGS in four different manners, which was proposed to be caused by different substitutions on the 2,5-DKP moiety.
The mode of inhibition was determined by the Lineweaver–Burk plot using GraphPad Prism 8.0 software. The Km and Vmax values were obtained from the slope and y-axis intercept of the Lineweaver–Burk plot based on Equations (1) and (2):(1) Vmax=1/Y-intercept (2) Km=slope× Vmax
The Ki and Ki’ values were calculated by secondary plotting of the slope and y-intercept on the Lineweaver–Burk plot versus the inhibitor [I] based on Equations (3) and (4):(3) Slope=Km/Vmax+Km[I]/VmaxKi (4) Y-intercept=1/Vmax+[I]/VmaxKi^′

[3] = In vitro cytotoxicity MTT assay; format: cell-based; settings: human
Description: To preliminarily evaluate the safety of the AGS inhibitors, the in vitro cytotoxicity of 3, 8, 9, 11, 14, 16, and 17 toward human normal hepatocyte (LO2) cells was tested by MTT assay. […] Since cancer and diabetes are linked, these compounds need to be evaluated for cytotoxicity against a panel of cancer cell lines to assess their safety profile at least in vitro in future studies.
The LO2 cell line was cultured in a 1640 medium supplemented with 10% fetal bovine serum, 100 U/mL of penicillin, and 0.1 mg/mL of streptomycin in a humidified incubator with a 5% CO2 atmosphere at 37 °C. The cells were seeded in 96-well plates at a density of 3 × 10^3 cells per well. After 12 h, the medium in the wells was replaced by 100 µL of fresh medium containing drugs of six different concentrations. After incubation for another 48 h, the medium was removed and the fresh medium containing 10 µL of MTT (5 mg/mL) were added to each well and incubated for 4 h. Then, the medium was replaced by 100 µL of DMSO to dissolve the formazan crystals. OD570 was detected on a microplate reader. Parallel triplicate replication was performed for each dose, and the IC50 values were calculated.

[4] = inhibitor concentration 0.04 mM
[5] = inhibitor concentration 0.06 mM
[6] = inhibitor concentration 0.08 mM
[7] = secondary plot of Y-intercept versus [I], binding to AGS-substrate complex, read-out: Ki
[8] = inhibitor concentration 0.05 mM
[9] = inhibitor concentration 0.07 mM
[10] = inhibitor concentration 0.09 mM
[11] = inhibitor concentration 0.10 mM

T1 sequence (P53341 whole entry): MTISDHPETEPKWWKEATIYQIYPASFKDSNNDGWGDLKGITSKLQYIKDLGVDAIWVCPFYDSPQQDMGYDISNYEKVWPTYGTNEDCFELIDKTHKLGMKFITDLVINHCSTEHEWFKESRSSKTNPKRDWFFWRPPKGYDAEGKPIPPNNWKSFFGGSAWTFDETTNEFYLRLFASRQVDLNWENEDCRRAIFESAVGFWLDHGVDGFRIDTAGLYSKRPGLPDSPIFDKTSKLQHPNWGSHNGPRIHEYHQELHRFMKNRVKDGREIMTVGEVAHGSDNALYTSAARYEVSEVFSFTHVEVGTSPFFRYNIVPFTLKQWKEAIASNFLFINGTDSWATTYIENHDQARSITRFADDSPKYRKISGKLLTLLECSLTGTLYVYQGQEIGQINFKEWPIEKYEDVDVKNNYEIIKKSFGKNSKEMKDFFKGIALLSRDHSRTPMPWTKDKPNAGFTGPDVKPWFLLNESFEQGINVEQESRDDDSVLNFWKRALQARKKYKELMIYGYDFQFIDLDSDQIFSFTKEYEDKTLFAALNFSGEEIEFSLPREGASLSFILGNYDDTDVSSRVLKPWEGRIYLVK

| SMILES | IC50 [1] [µM] | inhibition type against AGS [2] | Vmax [2, 4] [µM/min] | Vmax [2, 5] [µM/min] | Vmax [2, 6] [µM/min] | Ki [2, 7] [µM] | Ki ([2]; secondary plot of slope versus [I], binding to free AGS, read-out: Ki) [µM] | IC50 at 48 h [3] [µM] | Ki [2] [µM] | Vmax ([2]; inhibitor concentration 0.02 mM) [µM/min] | Vmax ([2]; inhibitor concentration 0.03 mM) [µM/min] | IC50 at 48 h ([3]; LO2 cells (human normal hepatocyte cell line), MTT, 48 h incubation, read-out: Cytotoxicity IC50 against LO2 cells) [µM] | Vmax [2, 8] [µM/min] | Vmax ([2]; inhibitor concentration 0.20 mM) [µM/min] | Vmax [2, 9] [µM/min] | Vmax [2, 10] [µM/min] | Vmax [2, 11] [µM/min] |
| --- | --- | --- | --- | --- | --- | --- | --- | --- | --- | --- | --- | --- | --- | --- | --- | --- | --- |
| COC1CCC=C(C)C(=O)Nc2cc(O)cc(c2)CC(C)CC(OC)C(O)C(C)C=C(C)C1OC(N)=O (stereo not shown) [Compound 3, autolytimycin] | 35.8 ± 0.4 | non-competitive inhibitors | 0.86 ± 0.03 | 0.67 ± 0.04 | 0.46 ± 0.03 | 53.10 | 49.2 | > 100 | – | – | – | – | – | – | – | – | – |
| O=C1N[C@@H](Cc2c[nH]c3ccccc23)C(=O)N2CCC[C@@H]12 [Compound 8, cyclo(L-Pro-L-Trp)] | 53.8 ± 1.88 | non-competitive inhibitors | – | – | 0.41 ± 0.03 | 46.28 | – | – | 43.9 | 0.85 ± 0.05 | 0.66 ± 0.03 | > 100 | – | – | – | – | – |
| O=C1N[C@@H](Cc2c[nH]c3ccccc23)C(=O)N[C@H]1CO [Compound 9, cyclo(L-Ser-L-Trp)] | 164 ± 15.5 | mixed-type manner | – | – | 1.11 ± 0.14 | 238.78 | – | > 100 | 149 | – | – | – | 1.33 ± 0.17 | 0.89 ± 0.22 | – | – | – |
| CC[C@H](C)[C@@H]1NC(=O)[C@H](Cc2ccc(O)cc2)NC1=O [Compound 11, cyclo(L-Ile-L-Tyr)] | 101 ± 2.52 | mixed-type manner | – | 0.98 ± 0.05 | – | 531.53 | – | > 100 | 95.5 | – | – | – | – | – | 0.94 ± 0.02 | 0.90 ± 0.05 | – |
| O=C1NC(Cc2ccccc2)C(=O)NC1CO [Compound 14, cyclo(L-Ser-L-Phe)] | 62.2 ± 0.11 | competitive inhibitor | 0.81 ± 0.06 | – | – | – | – | > 100 | – | – | – | – | – | – | – | 0.76 ± 0.04 | 0.83 ± 0.18 |
| CC[C@H](C)[C@@H]1NC(=O)[C@H](CC(C)C)NC1=O [Compound 16, cyclo(L-Leu-L-Ile)] | 74 ± 1.25 | mixed-type manner | – | – | 0.86 ± 0.11 | 78.89 | – | > 100 | 59.8 | – | – | – | 1.07 ± 0.13 | – | – | – | 0.74 ± 0.07 |
| C[C@@H]1NC(=O)[C@@H]2CCCN2C1=O [Compound 17, cyclo(L-Ala-L-Pro)] | 56.75 ± 0.32 | non-competitive and uncompetitive mixed-type of inhibition | – | 0.79 ± 0.02 | – | – | – | > 100 | – | – | – | – | – | – | 0.66 ± 0.03 | 0.47 ± 0.01 | – |
